Reference: ChEMBL document CHEMBL3885881, “DrugMatrix”

Organism: Rattus norvegicus
Assay: DrugMatrix - Regimen: Daily Repeat
Format: toxicity, organism-based, Sprague-Dawley
Set-up: regimen Daily Repeat, gender Male, age 6-8 weeks
Details: in vivo, po, route oral GAVAGE, vehicle .5 % CMC; for ABSOLUTE BASOPHIL / ABSOLUTE EOSINOPHIL / ABSOLUTE LYMPHOCYTE / ABSOLUTE MONOCYTE / ABSOLUTE SEGMENTED NEUTROPHIL / BASOPHIL / EOSINOPHIL / HEMATOCRIT / LEUKOCYTE COUNT / LYMPHOCYTE / MEAN CORPUSCULAR HEMOGLOBIN / MEAN CORPUSCULAR HEMOGLOBIN CONCENTRATION / MEAN CORPUSCULAR VOLUME / MONOCYTE / NEUTROPHIL / NUCLEATED RED BLOOD CELLS / PLATELET COUNT: tissue Blood; for ALANINE AMINOTRANSFERASE / ALBUMIN / ALKALINE PHOSPHATASE / ASPARTATE AMINOTRANSFERASE / BLOOD UREA NITROGEN / CARBON DIOXIDE / CHLORIDE / CHOLESTEROL / CREATININE / GLUCOSE / LACTATE DEHYDROGENASE / LIPASE / PHOSPHORUS / TOTAL BILIRUBIN / TOTAL PROTEIN / URIC ACID / SODIUM: tissue Plasma
[1] = 0 mg/kg, 72 h, dose level Control, time 3 day
[2] = 0 mg/kg, 120 h, dose level Control, time 5 day
[3] = 23 mg/kg, 72 h, dose level High, time 3 day

Cc1cc2c(s1)Nc1ccccc1N=C2N1CCN(C)CC1 [OLANZAPINE]
ABSOLUTE BASOPHIL [1]: 0 CELLS/uL | ABSOLUTE EOSINOPHIL [1]: 47.67 CELLS/uL | ABSOLUTE LYMPHOCYTE [1]: 15937.67 CELLS/uL | ABSOLUTE MONOCYTE [1]: 138.33 CELLS/uL | ABSOLUTE SEGMENTED NEUTROPHIL [1]: 1443 CELLS/uL | BASOPHIL [1]: 0% | EOSINOPHIL [1]: 0.33% | HEMATOCRIT [1]: 34.43% | LEUKOCYTE COUNT [1]: 17.57 x10E3/uL | LYMPHOCYTE [1]: 90.33% | MEAN CORPUSCULAR HEMOGLOBIN [1]: 24.6 pg | MEAN CORPUSCULAR HEMOGLOBIN CONCENTRATION [1]: 38.88 G/DL | MEAN CORPUSCULAR VOLUME [1]: 63.27 fL | MONOCYTE [1]: 0.83% | NEUTROPHIL [1]: 8.5% | NUCLEATED RED BLOOD CELLS [1]: 0 /100WBC | PLATELET COUNT [1]: 1298 x10E3/uL | ALANINE AMINOTRANSFERASE [1]: 47.67 u/L | ALBUMIN [1]: 4.18 G/DL | ALKALINE PHOSPHATASE [1]: 398.5 u/L | ASPARTATE AMINOTRANSFERASE [1]: 93.17 u/L | BLOOD UREA NITROGEN [1]: 16 mg/dL | CARBON DIOXIDE [1]: 29.17 mmol/L | CHLORIDE [1]: 98.17 MEQ/L | CHOLESTEROL [1]: 68.83 mg/dL | CREATININE [1]: 0.14 mg/dL | GLUCOSE [1]: 151.67 mg/dL | LACTATE DEHYDROGENASE [1]: 597.5 u/L | LIPASE [1]: 9.33 u/L | PHOSPHORUS [1]: 11.97 mg/dL | TOTAL BILIRUBIN [1]: 0.18 mg/dL | TOTAL PROTEIN [1]: 5.82 G/DL | URIC ACID [1]: 1.48 mg/dL | ABSOLUTE BASOPHIL [2]: 0 CELLS/uL | ABSOLUTE EOSINOPHIL [2]: 31 CELLS/uL | ABSOLUTE LYMPHOCYTE [2]: 14327.83 CELLS/uL | ABSOLUTE MONOCYTE [2]: 102.83 CELLS/uL | ABSOLUTE SEGMENTED NEUTROPHIL [2]: 1321.67 CELLS/uL | BASOPHIL [2]: 0% | EOSINOPHIL [2]: 0.17% | HEMATOCRIT [2]: 36.1% | LEUKOCYTE COUNT [2]: 15.78 x10E3/uL | LYMPHOCYTE [2]: 90.5% | MEAN CORPUSCULAR HEMOGLOBIN [2]: 24.48 pg | MEAN CORPUSCULAR HEMOGLOBIN CONCENTRATION [2]: 39.22 G/DL | MEAN CORPUSCULAR VOLUME [2]: 62.4 fL | MONOCYTE [2]: 0.67% | NEUTROPHIL [2]: 8.67% | NUCLEATED RED BLOOD CELLS [2]: 0.17 /100WBC | PLATELET COUNT [2]: 1211.67 x10E3/uL | ALANINE AMINOTRANSFERASE [2]: 49 u/L | ALBUMIN [2]: 4.27 G/DL | ALKALINE PHOSPHATASE [2]: 356.67 u/L | ASPARTATE AMINOTRANSFERASE [2]: 90.17 u/L | BLOOD UREA NITROGEN [2]: 20.5 mg/dL | CARBON DIOXIDE [2]: 29.17 mmol/L | CHLORIDE [2]: 98 MEQ/L | CHOLESTEROL [2]: 69.83 mg/dL | CREATININE [2]: 0.21 mg/dL | GLUCOSE [2]: 149.83 mg/dL | LACTATE DEHYDROGENASE [2]: 322 u/L | LIPASE [2]: 10 u/L | PHOSPHORUS [2]: 12 mg/dL | SODIUM [2]: 142.8 MEQ/L | TOTAL BILIRUBIN [2]: 0.17 mg/dL | TOTAL PROTEIN [2]: 6.1 G/DL | URIC ACID [2]: 1.68 mg/dL | ABSOLUTE BASOPHIL [3]: 0 CELLS/uL | ABSOLUTE EOSINOPHIL [3]: 0 CELLS/uL | ABSOLUTE LYMPHOCYTE [3]: 12570 CELLS/uL | ABSOLUTE MONOCYTE [3]: 145.67 CELLS/uL | ABSOLUTE SEGMENTED NEUTROPHIL [3]: 851 CELLS/uL | BASOPHIL [3]: 0% | EOSINOPHIL [3]: 0% | HEMATOCRIT [3]: 37.27% | LEUKOCYTE COUNT [3]: 13.57 x10E3/uL | LYMPHOCYTE [3]: 92.67% | MEAN CORPUSCULAR HEMOGLOBIN [3]: 24.63 pg | MEAN CORPUSCULAR HEMOGLOBIN CONCENTRATION [3]: 39.1 G/DL | MEAN CORPUSCULAR VOLUME [3]: 63 fL | MONOCYTE [3]: 1% | NEUTROPHIL [3]: 6.33% | NUCLEATED RED BLOOD CELLS [3]: 0 /100WBC | PLATELET COUNT [3]: 1303 x10E3/uL | ALANINE AMINOTRANSFERASE [3]: 52 u/L | ALBUMIN [3]: 4.4 G/DL | ALKALINE PHOSPHATASE [3]: 415.67 u/L | ASPARTATE AMINOTRANSFERASE [3]: 84 u/L | BLOOD UREA NITROGEN [3]: 21.33 mg/dL | CARBON DIOXIDE [3]: 26.33 mmol/L | CHLORIDE [3]: 102 MEQ/L | CHOLESTEROL [3]: 86.67 mg/dL | CREATININE [3]: 0.21 mg/dL | GLUCOSE [3]: 155.67 mg/dL | LACTATE DEHYDROGENASE [3]: 203.33 u/L | LIPASE [3]: 9.67 u/L | PHOSPHORUS [3]: 11.47 mg/dL | SODIUM [3]: 144.27 MEQ/L | TOTAL BILIRUBIN [3]: 0.23 mg/dL | TOTAL PROTEIN [3]: 5.97 G/DL | URIC ACID [3]: 1.83 mg/dL
